From PMC4926213, “Synthetic small molecule GLP-1 secretagogues prepared by means of a three-component indole annulation strategy” (Scientific Reports, 2016)

Assays:
Format in all cases: cell-based
[1] = biological target: T1, TRPA1 (Mus musculus, UniProt Q8BLA8); assay: fura-2 Ca2+ assay and whole-cell patch clamp in STC-1 cells; blocked by A967079 and HC030031
T1 construct: endogenous channel in mouse STC-1 cells

[2] = biological target: T2, TRPA1 (Rattus norvegicus, UniProt Q6RI86, C622S); assay: fura-2 Ca2+ assay in HEK-293 cells transfected with C622S rat TRPA1
T2 construct: mutant rat C622S TRPA1

[3] = biological target: T3, TRPA1 (Rattus norvegicus, UniProt Q6RI86); assay: fura-2 Ca2+ assay in HEK-293 cells transfected with rat TRPA1 versus empty vector; loss of response in C622S
T3 construct: wild-type rat TRPA1 (GenBank AY496961.1), 5' fused to YFP
T3 sequence (Q6RI86 whole entry, the tested form may be a part): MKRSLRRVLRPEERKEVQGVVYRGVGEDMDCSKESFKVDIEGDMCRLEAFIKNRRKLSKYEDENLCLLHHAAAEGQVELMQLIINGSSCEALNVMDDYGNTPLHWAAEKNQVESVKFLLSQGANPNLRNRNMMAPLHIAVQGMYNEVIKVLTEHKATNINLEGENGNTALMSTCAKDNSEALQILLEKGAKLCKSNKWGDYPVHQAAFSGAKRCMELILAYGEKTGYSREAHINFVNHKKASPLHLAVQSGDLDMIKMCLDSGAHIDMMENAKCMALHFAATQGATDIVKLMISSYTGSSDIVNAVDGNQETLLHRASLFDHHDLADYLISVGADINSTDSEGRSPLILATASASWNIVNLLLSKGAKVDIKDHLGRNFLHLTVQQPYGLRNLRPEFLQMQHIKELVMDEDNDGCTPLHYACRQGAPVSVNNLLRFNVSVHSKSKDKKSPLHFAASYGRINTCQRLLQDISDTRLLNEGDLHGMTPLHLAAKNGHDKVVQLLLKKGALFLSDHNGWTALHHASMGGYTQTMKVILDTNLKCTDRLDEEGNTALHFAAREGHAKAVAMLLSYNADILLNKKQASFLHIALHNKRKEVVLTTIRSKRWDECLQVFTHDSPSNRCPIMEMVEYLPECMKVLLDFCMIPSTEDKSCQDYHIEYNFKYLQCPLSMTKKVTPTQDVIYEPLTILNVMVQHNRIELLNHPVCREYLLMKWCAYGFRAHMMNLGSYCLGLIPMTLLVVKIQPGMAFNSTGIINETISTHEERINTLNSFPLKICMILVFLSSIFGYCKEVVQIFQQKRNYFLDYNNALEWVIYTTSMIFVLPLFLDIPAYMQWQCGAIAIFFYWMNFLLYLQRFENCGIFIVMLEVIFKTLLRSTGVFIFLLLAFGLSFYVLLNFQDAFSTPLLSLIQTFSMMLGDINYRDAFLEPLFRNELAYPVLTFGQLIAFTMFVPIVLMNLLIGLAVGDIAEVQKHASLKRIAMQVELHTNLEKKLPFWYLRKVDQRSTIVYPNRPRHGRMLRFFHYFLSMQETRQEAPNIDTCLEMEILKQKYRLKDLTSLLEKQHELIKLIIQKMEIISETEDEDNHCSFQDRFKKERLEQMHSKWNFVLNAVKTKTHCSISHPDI

T1 sequence (Q8BLA8 whole entry): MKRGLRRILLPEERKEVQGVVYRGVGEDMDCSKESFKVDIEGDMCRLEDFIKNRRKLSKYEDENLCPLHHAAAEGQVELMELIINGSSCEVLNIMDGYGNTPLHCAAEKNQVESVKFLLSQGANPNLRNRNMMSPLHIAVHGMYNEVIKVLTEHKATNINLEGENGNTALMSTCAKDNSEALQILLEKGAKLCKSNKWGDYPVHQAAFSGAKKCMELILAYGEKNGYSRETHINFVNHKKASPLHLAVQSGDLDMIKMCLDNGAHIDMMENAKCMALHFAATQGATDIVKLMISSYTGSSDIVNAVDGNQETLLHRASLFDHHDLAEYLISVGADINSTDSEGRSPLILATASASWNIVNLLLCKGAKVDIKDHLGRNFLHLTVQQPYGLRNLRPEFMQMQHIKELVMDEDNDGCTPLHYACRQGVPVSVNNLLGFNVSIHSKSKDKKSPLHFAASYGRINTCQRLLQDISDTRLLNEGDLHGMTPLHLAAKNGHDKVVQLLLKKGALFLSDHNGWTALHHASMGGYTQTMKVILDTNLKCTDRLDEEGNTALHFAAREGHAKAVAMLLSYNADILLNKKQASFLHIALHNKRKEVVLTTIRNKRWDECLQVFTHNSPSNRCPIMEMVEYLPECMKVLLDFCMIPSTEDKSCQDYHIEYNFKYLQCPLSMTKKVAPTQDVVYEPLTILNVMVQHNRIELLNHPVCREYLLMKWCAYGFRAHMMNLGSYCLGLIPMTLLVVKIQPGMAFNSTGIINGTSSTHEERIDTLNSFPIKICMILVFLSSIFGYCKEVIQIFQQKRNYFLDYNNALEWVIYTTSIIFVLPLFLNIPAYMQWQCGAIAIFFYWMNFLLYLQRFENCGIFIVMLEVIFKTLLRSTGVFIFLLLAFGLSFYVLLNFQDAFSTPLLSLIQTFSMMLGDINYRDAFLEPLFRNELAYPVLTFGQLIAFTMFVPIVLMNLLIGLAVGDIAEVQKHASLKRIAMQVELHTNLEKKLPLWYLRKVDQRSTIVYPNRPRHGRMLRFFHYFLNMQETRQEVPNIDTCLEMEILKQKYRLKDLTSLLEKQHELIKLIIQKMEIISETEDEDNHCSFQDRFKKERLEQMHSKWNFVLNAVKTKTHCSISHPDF
T2 sequence (Q6RI86 whole entry C622S): as the sequence (Q6RI86 whole entry, the tested form may be a part) above, with C622S counted along it

| SMILES | EC50 [1] [nM] | fura-2 Ca2+ assay in HEK-293 cells transfected with C622S rat TRPA1 [2] | fura-2 Ca2+ assay in HEK-293 cells transfected with rat TRPA1 versus empty vecto [3] |
| --- | --- | --- | --- |
| CC1(C)c2c([nH]c3ccc(Cl)cc23)C2C=CC1C2 (racemic) [JWU-A021] | ~200 | mutant C622S rat TRPA1 cDNA responded to JWU-A021 in a manner nearly identical to that of cells transfected with WT | – |
| C=CCN=C=S [AITC, allyl isothiocyanate] | – | – | the electrophile AITC must covalently modify C622 in order to fully activate the channel |
